Where a name gives a salt, the structure may show the parent alone.
Columns and labels:
[1] = molecular target: T1, MMP-3 (Homo sapiens, UniProt P08254); test: Inhibition of MMP-3, fluorogenic peptide cleavage; type: biochemical; settings: catalytic domain MMP-3, 1 nM enzyme, 5 μM substrate
T1 construct: Catalytic domains MMP-2, MMP-3 and MMP-9 were prepared; made in house
Method: (§1) The biological activities of the compounds of the present invention were determined by the following test methods, which are based on the ability of the compounds to inhibit the cleavage of various fluorogenic peptides by MMPs 1, 2, 3, 9, 13 and 14.
(§2) The assays for MMPs 2, 3, 9 and 14 are based upon the original protocol described in Fed. Euro. Biochem. Soc., 1992, 296, 263, with the minor modifications described below.
(§3) Inhibition of MMP-2, MMP-3 and MMP-9
(§4) Catalytic domains MMP-2, MMP-3 and MMP-9 were prepared in Pfizer Central Research laboratories in a standard manner from sources known to the skilled person, including some of the references mentioned herein. A stock solution of MMP-2, MMP-3 or MMP-9 (1 μM) was activated by the addition of APMA. For MMP-2 and MMP-9, a final concentration of 1 mM APMA was added, followed by incubation for 1 hour at 37° C. MMP-3 was activated by the addition of 2 mM APMA, followed by incubation for 3 hours at 37° C. The enzymes were then diluted in Tris-HCl assay buffer (100 mM Tris, 100 mM NaCl, 10 mM CaCl2 and 0.16% Brij 35, pH 7.5) to a concentration of 10 nM. The final concentration of enzyme used in the assays was 1 nM.
(§5) The fluorogenic substrate used in this screen was Mca-Arg-Pro-Lys-Pro-Tyr-Ala-Nva-Trp-Met-Lys(Dnp)-NH2 (Bachem Ltd., Essex, UK) as originally described in J. Biol. Chem., 1994, 269, 20952. This substrate was selected because it has a balanced hydrolysis rate against MMPs 2, 3 and 9 (kcat/km of 54,000, 59,400 and 55,300 s^−1 M^−1 respectively). The final substrate concentration used in the assay was 5 μM.
(§6) Determination of Enzyme Inhibition
(§7) The test compound was dissolved in dimethyl sulphoxide and diluted with assay buffer so that no more than 1% dimethyl sulphoxide was present. Test compound and enzyme were added to each well of a 96 well plate and allowed to equilibrate for 15 minutes at 37° C. in an orbital shaker prior to the addition of substrate. Plates were then incubated for 1 hour at 37° C., prior to determination of fluorescence using a fluorimeter (Fluostar; BMG LabTechnologies, Aylesbury, UK) at an excitation wavelength of 328 nm and emission wavelength of 393 nm. The potency of inhibition was measured from the amount of substrate cleavage obtained using a range of test compound concentrations and, from the resulting dose-response curve, an IC50 value (the concentration of inhibitor required to inhibit 50% of the enzyme activity) was calculated.

[2] = molecular target: MMP-9 (Homo sapiens, UniProt P14780); test: Inhibition of MMP-9, fluorogenic peptide cleavage; type: biochemical; settings: catalytic domain MMP-9, 1 nM enzyme, 5 μM substrate
Method: as §1, §2, §3, §4, §5, §6, §7

[3] = molecular target: MMP-2 (Homo sapiens, UniProt P08253); test: Inhibition of MMP-2, fluorogenic peptide cleavage; type: biochemical; settings: catalytic domain MMP-2, 1 nM enzyme, 5 μM substrate
Method: as §1, §2, §3, §4, §5, §6, §7

[4] = molecular target: T2, MMP-1 (Homo sapiens, UniProt P03956); test: Inhibition of MMP-1, fluorogenic peptide cleavage; type: biochemical; settings: catalytic domain MMP-1, 1 nM enzyme, 10 μM substrate
T2 construct: Catalytic domain MMP-1 was prepared; made in house
T2 sequence (P03956 100-269 limits assumed): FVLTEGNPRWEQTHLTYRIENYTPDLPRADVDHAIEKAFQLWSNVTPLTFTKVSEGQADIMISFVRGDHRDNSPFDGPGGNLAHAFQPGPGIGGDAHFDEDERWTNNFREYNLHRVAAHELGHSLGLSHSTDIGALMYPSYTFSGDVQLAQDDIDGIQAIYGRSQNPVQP
Method: as §1
Catalytic domain MMP-1 was prepared in Pfizer Central Research laboratories in a standard manner from sources known to the skilled person, including some of the references mentioned herein. A stock solution of MMP-1 (1 μM) was activiated by the addition of aminophenylmercuric acetate (APMA), at a final concentration of 1 mM, for 20 minutes at 37° C. MMP-1 was then diluted in Tris-HCl assay buffer (50 mM Tris, 200 mM NaCl, 5 mM CaCl2, 20 μM ZnSO4 and 0.05% Brij 35, pH 7.5) to a concentration of 10 nM. The final concentration of enzyme used in the assay was 1 nM.
The fluorogenic substrate used in this assay was Dnp-Pro-β-cyclohexyl-Ala-Gly-Cys(Me)-His-Ala-Lys-(N-Me-Ala)-NH2 as originally described in Anal. Biochem., 1993, 212, 58. The final substrate concentration used in the assay was 10 μM.
as §6
as §7, with “C.” for “C.,”, “fluorescence (substrate cleavage)” for “fluorescence”, “355” for “328”, “440” for “393”, “IC50,” for “IC50”

[5] = molecular target: T3, MMP-14 (Homo sapiens, UniProt P50281); test: Inhibition of MMP-14, fluorogenic peptide cleavage; type: biochemical; settings: catalytic domain MMP-14, 1 nM enzyme
T3 construct: Catalytic domain MMP-14 was prepared; made in house
Method: as §1, §2
Catalytic domain MMP-14 was prepared in Pfizer Central Research laboratories in a standard manner from sources known to the skilled person, including some of the references mentioned herein. A 10 μM enzyme stock solution was activated for 20 minutes at 25° C. following the addition of 5 μg/ml of trypsin (Sigma, Dorset, UK). The trypsin activity was then neutralised by the addition of 50 μg/ml of soyabean trypsin inhibitor (Sigma, Dorset, UK), prior to dilution of this enzyme stock solution in Tris-HCl assay buffer (100 mM Tris, 100 mM NaCl, 10 mM CaCl2, 0.16% Brij 35, pH 7.5) to a concentration of 10 nM. The final concentration of enzyme used in the assay was 1 nM.
The fluorogenic substrate used in this screen was Mca-Pro-Leu-Gly-Leu-Dpa-Ala-Arg-NH2 (Bachem Ltd., Essex, UK) as described in J. Biol. Chem., 1996, 271, 17119.
Determination of enzyme inhibition
This was performed in the same manner as described for MMPs 2, 3 and 9.

T1 sequence (P08254 100-272 limits assumed): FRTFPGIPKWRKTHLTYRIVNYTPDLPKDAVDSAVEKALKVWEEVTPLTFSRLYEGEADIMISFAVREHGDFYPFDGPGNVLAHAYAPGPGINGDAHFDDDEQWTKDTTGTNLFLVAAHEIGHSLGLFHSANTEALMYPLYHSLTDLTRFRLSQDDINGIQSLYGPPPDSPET
Sequence of MMP-9 (P14780 whole entry, the tested form may be a part): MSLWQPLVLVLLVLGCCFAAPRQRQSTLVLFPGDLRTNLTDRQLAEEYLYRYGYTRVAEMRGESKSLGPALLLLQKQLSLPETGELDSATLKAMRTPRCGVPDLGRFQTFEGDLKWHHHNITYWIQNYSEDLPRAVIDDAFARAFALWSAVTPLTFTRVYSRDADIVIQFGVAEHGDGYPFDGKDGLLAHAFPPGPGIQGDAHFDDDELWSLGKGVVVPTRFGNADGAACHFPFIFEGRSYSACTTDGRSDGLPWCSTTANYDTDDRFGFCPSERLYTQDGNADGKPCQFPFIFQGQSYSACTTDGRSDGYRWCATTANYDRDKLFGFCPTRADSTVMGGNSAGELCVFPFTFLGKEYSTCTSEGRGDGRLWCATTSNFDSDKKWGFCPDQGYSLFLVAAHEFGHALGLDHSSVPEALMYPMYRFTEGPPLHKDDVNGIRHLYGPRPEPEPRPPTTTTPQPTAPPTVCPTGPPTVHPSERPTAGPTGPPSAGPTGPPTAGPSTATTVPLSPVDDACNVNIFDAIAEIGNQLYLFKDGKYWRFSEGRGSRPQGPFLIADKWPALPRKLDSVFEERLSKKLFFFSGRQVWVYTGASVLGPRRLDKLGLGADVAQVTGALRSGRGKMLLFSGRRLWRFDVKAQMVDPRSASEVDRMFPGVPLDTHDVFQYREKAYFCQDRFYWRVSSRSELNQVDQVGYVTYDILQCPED
Sequence of MMP-2 (P08253 whole entry, the tested form may be a part): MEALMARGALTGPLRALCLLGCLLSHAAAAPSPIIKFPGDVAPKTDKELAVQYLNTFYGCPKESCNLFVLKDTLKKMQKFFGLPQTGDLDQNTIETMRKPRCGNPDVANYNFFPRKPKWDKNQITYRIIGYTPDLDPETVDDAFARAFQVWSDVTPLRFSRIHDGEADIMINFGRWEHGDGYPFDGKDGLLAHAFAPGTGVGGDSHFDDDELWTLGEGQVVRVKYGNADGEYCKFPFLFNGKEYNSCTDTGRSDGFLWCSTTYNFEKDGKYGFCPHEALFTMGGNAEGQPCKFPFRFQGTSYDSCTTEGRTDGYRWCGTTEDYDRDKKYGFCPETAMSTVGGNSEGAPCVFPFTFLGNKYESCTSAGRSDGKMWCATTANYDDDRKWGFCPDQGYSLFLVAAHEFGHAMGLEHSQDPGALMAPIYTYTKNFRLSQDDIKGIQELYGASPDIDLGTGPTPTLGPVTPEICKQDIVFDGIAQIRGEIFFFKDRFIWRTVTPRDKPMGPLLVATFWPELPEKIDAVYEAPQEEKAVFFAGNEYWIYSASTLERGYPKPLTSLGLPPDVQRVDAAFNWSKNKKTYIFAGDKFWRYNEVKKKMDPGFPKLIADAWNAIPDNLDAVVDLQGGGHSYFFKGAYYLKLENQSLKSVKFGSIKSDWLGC

Row | SMILES | melting point [°C] | IC50 [1] [nM] | IC50 [2] [nM] | IC50 [3] [nM] | IC50 [4] [nM] | IC50 [5] [nM]
1 | Cc1cc(C2CCN(S(=O)(=O)C(C)(C)C(=O)NO)CC2)ccc1-c1cccc(OC[C@@H](O)CO)c1 [Example 8, N-Hydroxy 2-[4-(4-{3-[(2S)-2,3-dihydroxy-1-propoxy]phenyl}-3-methylphenyl)-piperidin-1-ylsulphonyl]-2-methylpropanamide] | 152 to 154 |  |  |  |  | 
2 | CCOc1cccc(-c2ccc(C3CCN(S(=O)(=O)C4(C(=O)NO)CC(O)C(O)C4)CC3)cc2C)n1 (stereo not drawn) [Example 22, (1α,3α,4α)-1-({4-[4-(6-ethoxypyridin-2-yl)-3-methylphenyl]piperidin-1-yl}sulfonyl)-N,3,4-trihydroxycyclopentanecarboxamide] | 204 to 205 |  |  |  |  | 
3 | Cc1cc(C2CCN(S(=O)(=O)C3(C(=O)NO)CCOCC3)CC2)ccc1-c1cccc(OCCN)c1.Cl [Example 14, N-Hydroxy 4-{[4-(-4-{3-[2-aminoethoxy]phenyl}-3-methylphenyl)piperidin-1-yl]sulphonyl}tetrahydro-2H-pyran-4-carboxamide hydrochloride] | 208 to 210 | < 10 | > 70 | > 100 | > 1000 | > 2000
4 | Cc1cc(C2CCN(S(=O)(=O)C3(C(=O)NO)CCOCC3)CC2)ccc1-c1cccc(CN2CCOCC2)c1 [Example 17, N-Hydroxy 4-{[4-(3-methyl-4-{3-[4-morpholinylmethyl]}phenyl)piperidin-1-yl]sulphonyl}tetrahydro-2H-pyran-4-carboxamide] | 177 to 179 |  |  |  |  | 
5 | Cc1cc(C2CCN(S(=O)(=O)C3(C(=O)NO)CCN(C)CC3)CC2)ccc1-c1cccc(OCCO)n1 [Example 7, N-Hydroxy 4-{[4-(4-{6-[2-hydroxyethoxy]pyridin-2-yl}-3-methylphenyl)piperidin-1-yl]sulphonyl}-1-methyl-piperidine-4-carboxamide] |  | < 10 | > 70 | > 100 | > 1000 | > 2000
6 | Cc1cc(C2CCN(S(=O)(=O)C3(C(=O)NO)CCOCC3)CC2)ccc1-c1cccc(OC[C@@H](O)CO)c1 [Example 10, N-Hydroxy 4-{4-[4-(3-{(2S)-2-hydroxy-2-hydroxymethyl}ethoxyphenyl)-3-methylphenyl]-piperidin-1-ylsulphonyl}-tetrahydro-2H-pyran-4-carboxamide] |  | < 10 | > 70 | > 100 | > 1000 | > 2000
7 | Cc1cc(C2CCN(S(=O)(=O)C3(C(=O)NO)CCOCC3)CC2)ccc1-c1cccc(OC[C@H](O)CO)n1 [Example 5, N-Hydroxy 4-{[4-(4-{6-[(2R)-2,3-dihydroxy-1-propoxy]pyridin-2-yl}-3-methylphenyl)piperidin-1-yl]sulphonyl}tetrahydro-2H-pyran-4-carboxamide] | 125 to 130 | < 10 | > 70 | > 100 | > 1000 | > 2000
8 | Cc1cc(C2CCN(S(=O)(=O)C3(C(=O)NO)CC(O)C(O)C3)CC2)ccc1-c1cccc(OCCO)n1 (stereo not drawn) [Example 21, (1α,3α,4α)-N,3,4-trihydroxy-1-[(4-{4-[6-(2-hydroxyethoxy)pyridin-2-yl]-3-methylphenyl}piperidin-1-yl)sulfonyl]cyclopentanecarboxamide] | 215 to 218 |  |  |  |  | 
9 | COc1cccc(-c2ccc(C3CCN(S(=O)(=O)C4(C(=O)NO)CC(O)C(O)C4)CC3)cc2C)c1 (stereo not drawn) [Example 24, (1α,3α,4α)-N,3,4-trihydroxy-1-{4-[4-(3-methoxyphenyl)-3-methylphenyl]piperidin-1-ylsulfonyl}cyclopentanecarboxamide] | 201 to 202 |  |  |  |  | 
10 | CNCc1cccc(-c2ccc(C3CCN(S(=O)(=O)C4(C(=O)NO)CCOCC4)CC3)cc2C)c1.Cl | 213 to 214 |  |  |  |  | 
11 | Cc1cc(C2CCN(S(=O)(=O)C3(C(=O)NO)CCNCC3)CC2)ccc1-c1cccc(OCCO)n1 [Example 6, N-Hydroxy 4-{[4-(4-{6-[2-hydroxyethoxy]pyridin-2-yl}-3-methylphenyl)piperidin-1-yl]sulphonyl}-piperidine-4-carboxamide dihydrochloride] |  | < 10 | > 70 | > 100 | > 1000 | > 2000
12 | COc1cccc(-c2ccc(C3CCN(S(=O)(=O)C4(C(=O)NO)CC(O)C(O)C4)CC3)cc2C)c1 (stereo not drawn) [Example 25, (1α,3β,4β)-N,3,4-trihydroxy-1-{4-[4-(3-methoxyphenyl)-3-methylphenyl]piperidin-1-ylsulfonyl}cyclopentanecarboxamide] | 188 to 189 |  |  |  |  | 
13 | CCOc1cccc(-c2ccc(C3CCN(S(=O)(=O)C4(C(=O)NO)CC(O)C(O)C4)CC3)cc2C)n1 (stereo not drawn) [Example 23, (1α,3β,4β)-1-({4-[4-(6-ethoxypyridin-2-yl)-3-methylphenyl]piperidin-1-yl}sulfonyl)-N, 3,4-trihydroxycyclopentanecarboxamide] | 196 to 197 |  |  |  |  | 
14 | Cc1cc(C2CCN(S(=O)(=O)C3(C(=O)NO)CCOCC3)CC2)ccc1-c1cccc(OC[C@@H](O)CO)n1 [Example 4, N-Hydroxy 4-{[4-(4-{6-[(2S)-2,3-dihydroxy-1-propoxy]pyridin-2-yl}-3-methylphenyl)piperidin-1-yl]sulphonyl}tetrahydro-2H-pyran-4-carboxamide] |  | < 10 | > 70 | > 100 | > 1000 | > 2000
15 | Cc1cc(C2CCN(S(=O)(=O)C3(C(=O)NO)CCOCC3)CC2)ccc1-c1cccc(OCCO)n1 [Example 3, N-Hydroxy 4-{[4-(4-{6-[2-hydroxyethoxy]pyridin-2-yl}-3-methylphenyl)piperidin-1-yl]sulphonyl}tetrahydro-2H-pyran-4-carboxamide] |  | < 10 | > 70 | > 100 | > 1000 | > 2000

From patent US6511993B1, “Metalloprotease inhibitors” (priority 1999, dated 2003)
